# Results reported in ChEMBL document CHEMBL1201862, “PubChem BioAssay data set” (2004).
# Active and inactive are the calls of the source.
# Legend:
# [1] = target: T1, Heat shock factor protein 1 (Mus musculus, UniProt P38532); experiment: inhibition of MG132-induced HSE-luciferase signal, confirmation, cell-based, NIH3T3, luminescence, dose retest (AID 2382); format: functional;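 further: NIH3T3 fibroblasts with HSF1-driven luciferase reporter stressed by proteasome inhibitor MG132; luminescence from HSF1-driven luciferase expression after 8 hours of MG132 stress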
# T1 sequence (P38532 whole entry): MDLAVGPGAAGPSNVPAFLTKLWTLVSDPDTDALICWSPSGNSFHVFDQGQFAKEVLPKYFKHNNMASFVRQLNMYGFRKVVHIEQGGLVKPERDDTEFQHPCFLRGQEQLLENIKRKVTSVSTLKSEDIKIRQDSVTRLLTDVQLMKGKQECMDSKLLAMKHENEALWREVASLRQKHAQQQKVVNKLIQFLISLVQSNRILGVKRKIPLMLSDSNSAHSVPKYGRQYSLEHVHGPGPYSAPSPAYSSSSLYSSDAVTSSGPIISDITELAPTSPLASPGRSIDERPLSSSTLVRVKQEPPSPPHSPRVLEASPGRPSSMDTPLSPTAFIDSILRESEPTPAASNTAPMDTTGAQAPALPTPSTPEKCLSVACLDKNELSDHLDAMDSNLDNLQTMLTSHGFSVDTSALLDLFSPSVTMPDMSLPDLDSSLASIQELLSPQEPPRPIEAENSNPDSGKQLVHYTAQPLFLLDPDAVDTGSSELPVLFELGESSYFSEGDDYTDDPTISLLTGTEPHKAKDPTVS
# [2] = target: T1, Heat shock factor protein 1; experiment: HSF1 potentiators in luciferase reporter cells, confirmation, cell-based, NIH3T3, luminescence, dose retest (AID 435004); format: functional;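 further: stress induced by proteasome inhibitor MG132 added 30 min after compound; luciferase reporter driven by HSF1 response element in NIH3T3 cells; actives raise luminescence as potentiators of the MG132 stress response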
# [3] = target: T2, Calpain-2 catalytic subunit (Sus scrofa, UniProt P43367); experiment: pig calpain II inhibitor potency, dose response, biochemical, fluorogenic peptide substrate (AID 1420); format: functional
# T2 sequence (P43367 whole entry): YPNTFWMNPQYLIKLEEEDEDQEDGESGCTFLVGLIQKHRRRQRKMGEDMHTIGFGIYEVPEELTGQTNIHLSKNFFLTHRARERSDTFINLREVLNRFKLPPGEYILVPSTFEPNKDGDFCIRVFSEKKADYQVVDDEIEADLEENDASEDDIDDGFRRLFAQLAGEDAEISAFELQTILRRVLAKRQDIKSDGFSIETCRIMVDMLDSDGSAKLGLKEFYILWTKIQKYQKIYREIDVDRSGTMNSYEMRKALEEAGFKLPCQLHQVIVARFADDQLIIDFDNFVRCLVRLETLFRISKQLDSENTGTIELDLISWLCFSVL
# [4] = Luminescence Cell-Based Dose Confirmation HTS to Identify Inhibitors of Platelet Dense Granule Release. [Related pubchem assays: 1663 (Primary HTS), 1678 (Summary of Project)]; format: functional
# [5] = target: Luciferin 4-monooxygenase (Photinus pyralis, UniProt P08659); experiment: firefly luciferase enzyme inhibitors, dose response, biochemical, luminescence (AID 1891)
# Sequence of Luciferin 4-monooxygenase (P08659 whole entry): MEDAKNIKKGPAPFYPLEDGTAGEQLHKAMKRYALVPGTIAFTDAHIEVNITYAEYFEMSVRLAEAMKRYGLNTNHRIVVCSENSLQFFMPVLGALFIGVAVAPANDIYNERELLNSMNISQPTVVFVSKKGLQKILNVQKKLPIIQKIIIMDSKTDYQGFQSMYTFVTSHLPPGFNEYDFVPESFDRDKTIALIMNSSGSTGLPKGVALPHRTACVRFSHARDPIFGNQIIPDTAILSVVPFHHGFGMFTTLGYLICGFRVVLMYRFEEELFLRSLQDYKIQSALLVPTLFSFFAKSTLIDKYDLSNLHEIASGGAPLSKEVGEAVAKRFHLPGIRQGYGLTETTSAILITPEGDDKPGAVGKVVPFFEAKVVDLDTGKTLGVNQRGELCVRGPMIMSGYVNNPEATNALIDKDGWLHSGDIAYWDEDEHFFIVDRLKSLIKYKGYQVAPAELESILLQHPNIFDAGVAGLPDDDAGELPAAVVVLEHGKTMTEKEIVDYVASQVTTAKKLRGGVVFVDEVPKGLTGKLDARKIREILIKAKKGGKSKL
# Cytochrome P450 2D6 = Cytochrome P450 2D6 (Homo sapiens, UniProt P10635);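 further: CYP2D6 member of a cytochrome P450 panel assay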
# Sequence of Cytochrome P450 2D6 (P10635 whole entry, the tested form may be a part): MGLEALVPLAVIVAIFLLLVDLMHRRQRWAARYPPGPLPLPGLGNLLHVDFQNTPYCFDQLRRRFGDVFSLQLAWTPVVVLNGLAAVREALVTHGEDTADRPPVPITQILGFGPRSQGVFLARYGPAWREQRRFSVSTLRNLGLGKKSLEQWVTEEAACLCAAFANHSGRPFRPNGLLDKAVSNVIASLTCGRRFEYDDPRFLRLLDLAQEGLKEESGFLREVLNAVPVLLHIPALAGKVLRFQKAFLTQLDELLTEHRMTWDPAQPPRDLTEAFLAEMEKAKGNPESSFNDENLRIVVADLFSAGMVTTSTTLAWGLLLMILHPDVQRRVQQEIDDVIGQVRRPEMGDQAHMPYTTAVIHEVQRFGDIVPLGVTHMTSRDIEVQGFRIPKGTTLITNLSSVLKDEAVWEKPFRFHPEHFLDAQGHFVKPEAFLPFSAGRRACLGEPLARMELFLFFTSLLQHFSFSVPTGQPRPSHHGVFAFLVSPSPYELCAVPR
# [6] = inhibitors of clade B AD8 Env fusion, dose response, cell-based, cherry-pick (AID 652062); format: functional;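 further: luciferase signal from cell-cell fusion driven by HIV-1 clade B AD8 Env; potency is for inhibitors of fusion seen as a drop in luminescence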
# Cytochrome P450 2C19 = Cytochrome P450 2C19 (Homo sapiens, UniProt P33261); experiment: Cytochrome panel assay with activity outcomes. Panel member name: p450-cyp2c19 Compounds with AC50 equal or less than 10 uM are considered active; format: functional; conditions: read-out: AC50
# Sequence of Cytochrome P450 2C19 (P33261 whole entry): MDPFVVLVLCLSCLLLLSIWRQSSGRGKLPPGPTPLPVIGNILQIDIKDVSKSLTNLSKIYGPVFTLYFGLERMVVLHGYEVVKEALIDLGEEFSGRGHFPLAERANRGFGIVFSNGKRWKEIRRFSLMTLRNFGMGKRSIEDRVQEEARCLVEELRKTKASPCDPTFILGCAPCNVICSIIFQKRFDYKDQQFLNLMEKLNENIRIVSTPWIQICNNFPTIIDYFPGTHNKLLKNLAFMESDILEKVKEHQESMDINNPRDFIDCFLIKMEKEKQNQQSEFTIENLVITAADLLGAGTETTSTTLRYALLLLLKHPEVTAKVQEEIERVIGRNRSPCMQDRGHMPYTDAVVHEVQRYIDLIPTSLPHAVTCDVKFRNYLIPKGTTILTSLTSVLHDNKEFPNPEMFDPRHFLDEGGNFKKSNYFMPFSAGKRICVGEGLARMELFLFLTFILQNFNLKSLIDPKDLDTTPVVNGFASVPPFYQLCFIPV
# [7] = target: T3, Polyadenylate-binding protein 1 (Homo sapiens, UniProt P11940); experiment: PABP1 MLLE–PAM2 interaction inhibitors, dose response, miRNA deadenylation inhibitor project, biochemical, fluorescence polarization, Cy5-PAM2 peptide, secondary (AID 602260); format: functional; conditions: read-out: IC50_Mean
# T3 sequence (P11940 whole entry): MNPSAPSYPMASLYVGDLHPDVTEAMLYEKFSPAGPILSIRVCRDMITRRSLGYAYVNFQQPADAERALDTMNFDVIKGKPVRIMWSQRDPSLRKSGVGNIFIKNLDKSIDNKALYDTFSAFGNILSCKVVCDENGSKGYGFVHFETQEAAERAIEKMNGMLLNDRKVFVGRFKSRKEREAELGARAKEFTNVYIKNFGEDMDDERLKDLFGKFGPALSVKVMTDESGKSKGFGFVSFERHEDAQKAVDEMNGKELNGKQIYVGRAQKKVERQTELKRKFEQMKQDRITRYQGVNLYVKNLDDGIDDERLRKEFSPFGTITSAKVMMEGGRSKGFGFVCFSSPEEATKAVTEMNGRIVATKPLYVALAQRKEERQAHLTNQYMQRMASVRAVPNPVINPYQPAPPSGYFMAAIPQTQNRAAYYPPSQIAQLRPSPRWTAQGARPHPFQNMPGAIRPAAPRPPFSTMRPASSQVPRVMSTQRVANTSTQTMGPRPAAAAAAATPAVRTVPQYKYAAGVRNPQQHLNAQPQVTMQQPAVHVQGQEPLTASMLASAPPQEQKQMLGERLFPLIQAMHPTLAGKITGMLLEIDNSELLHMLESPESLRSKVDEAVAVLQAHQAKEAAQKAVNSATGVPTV
# [8] = target: T3, Polyadenylate-binding protein 1; experiment: PABP1 MLLE–PAM2 binding inhibitor potency, dose response, biochemical, fluorescence polarization, FITC-PAM2 peptide (AID 602259); format: functional; conditions: read-out: IC50_Mean
# cells = format: functional
# H9c2 = experiment: cells; format: functional, cell-based; conditions: Rattus norvegicus, H9c2, Myocardium;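 further: confirmatory concentration-response retest of ultra-high-throughput screening hits for modulation of myocardial damage; cell death induced by hydrogen peroxide oxidative stress; compound pretreatment for 60 min then peroxide exposure for 2 h; potency is for protecting the cells against peroxide damage rather than for killing them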
# [9] = target: T4, Replicative DNA helicase DnaB (Mycobacterium tuberculosis, UniProt P9WMR3); experiment: DnaB intein splicing inhibitors, dose response, biochemical, cell-free fluorescence (AID 449749); format: functional
# T4 sequence (P9WMR3 whole entry): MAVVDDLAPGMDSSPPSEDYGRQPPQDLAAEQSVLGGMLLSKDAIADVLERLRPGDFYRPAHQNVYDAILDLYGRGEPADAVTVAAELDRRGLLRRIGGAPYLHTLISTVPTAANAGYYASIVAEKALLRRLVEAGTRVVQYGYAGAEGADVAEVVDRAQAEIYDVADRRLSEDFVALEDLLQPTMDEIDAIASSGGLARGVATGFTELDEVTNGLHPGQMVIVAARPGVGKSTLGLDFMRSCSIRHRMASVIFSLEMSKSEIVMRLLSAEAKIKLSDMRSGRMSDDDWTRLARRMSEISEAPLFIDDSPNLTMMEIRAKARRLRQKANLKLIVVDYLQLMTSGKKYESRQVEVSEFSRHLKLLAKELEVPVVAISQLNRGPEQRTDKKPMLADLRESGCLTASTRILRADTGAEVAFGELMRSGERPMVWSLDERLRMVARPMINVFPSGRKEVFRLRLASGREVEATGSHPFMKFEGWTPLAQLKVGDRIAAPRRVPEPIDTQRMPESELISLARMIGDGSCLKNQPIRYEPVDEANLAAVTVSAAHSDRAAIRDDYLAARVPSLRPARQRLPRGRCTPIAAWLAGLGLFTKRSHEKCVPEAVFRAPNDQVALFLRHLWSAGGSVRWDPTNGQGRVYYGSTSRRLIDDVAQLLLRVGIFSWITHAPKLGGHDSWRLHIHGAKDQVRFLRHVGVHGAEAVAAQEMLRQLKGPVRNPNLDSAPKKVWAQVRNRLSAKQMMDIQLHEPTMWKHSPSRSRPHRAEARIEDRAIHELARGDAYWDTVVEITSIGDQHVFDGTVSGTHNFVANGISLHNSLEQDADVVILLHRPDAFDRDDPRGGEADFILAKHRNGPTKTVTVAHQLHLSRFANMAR
# Protein RecA = target: T5, Protein RecA (Mycobacterium tuberculosis, UniProt P9WHJ3); experiment: Fluorescence Cell-Free Homogeneous Dose Retest to Identify Inhibitors of RecA-Intein Splicing Activity. [Related pubchem assays (depositor defined):AID2097, AID2223, AID489010, AID492950]; format: functional
# T5 sequence (P9WHJ3 whole entry): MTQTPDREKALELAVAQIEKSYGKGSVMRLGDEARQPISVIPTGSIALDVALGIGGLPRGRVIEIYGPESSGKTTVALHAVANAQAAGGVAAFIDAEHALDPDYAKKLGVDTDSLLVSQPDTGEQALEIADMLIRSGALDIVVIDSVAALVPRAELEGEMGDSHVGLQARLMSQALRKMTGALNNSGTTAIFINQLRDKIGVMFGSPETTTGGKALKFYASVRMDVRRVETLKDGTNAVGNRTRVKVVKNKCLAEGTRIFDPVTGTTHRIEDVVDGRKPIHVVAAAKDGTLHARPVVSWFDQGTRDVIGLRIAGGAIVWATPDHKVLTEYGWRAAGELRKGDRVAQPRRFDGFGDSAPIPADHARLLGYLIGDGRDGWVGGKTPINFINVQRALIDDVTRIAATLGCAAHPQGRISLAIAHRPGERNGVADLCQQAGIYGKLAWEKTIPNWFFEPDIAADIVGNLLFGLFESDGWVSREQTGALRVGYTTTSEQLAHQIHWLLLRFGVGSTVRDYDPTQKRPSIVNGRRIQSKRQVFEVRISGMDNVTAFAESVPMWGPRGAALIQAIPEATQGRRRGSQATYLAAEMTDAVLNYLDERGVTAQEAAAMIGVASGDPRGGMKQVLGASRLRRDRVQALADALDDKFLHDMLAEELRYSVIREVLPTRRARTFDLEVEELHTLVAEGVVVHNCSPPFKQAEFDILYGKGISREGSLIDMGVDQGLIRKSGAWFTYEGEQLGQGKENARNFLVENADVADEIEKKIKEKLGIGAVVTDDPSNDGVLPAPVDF
# [10] = microbe, parasite or virus in culture; format: functional; conditions: Mycobacterium tuberculosis
# [11] = Luminescence Cell-Based Dose Retest to Confirm Inhibitors of Cancer Stem Cells. [Related pubchem assays (depositor defined):AID2717, AID2721]; format: functional; conditions: Homo sapiens
# [12] = Shn3 3'UTR reporter inhibitors, dose response, cell-based, Clone20 osteoblasts, firefly luciferase, cherry-picked (AID 624132); format: functional;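 further: firefly luciferase luminescence from reporter carrying the Shn3 3'UTR in osteoblasts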
# [13] = control 3'UTR Renilla luciferase suppression, dose response, counter-screen for Shn3 inhibitor project, cell-based, Clone20-Shn3RL, cherry-picked (AID 624133); format: functional
# [14] = target: T6, Zinc finger protein mex-5 (Caenorhabditis elegans, UniProt Q9XUB2); experiment: MEX-5/TCR-2 RNA interaction inhibitors, dose response, biochemical, C. elegans, fluorescence polarization (AID 1960)
# T6 sequence (Q9XUB2 whole entry): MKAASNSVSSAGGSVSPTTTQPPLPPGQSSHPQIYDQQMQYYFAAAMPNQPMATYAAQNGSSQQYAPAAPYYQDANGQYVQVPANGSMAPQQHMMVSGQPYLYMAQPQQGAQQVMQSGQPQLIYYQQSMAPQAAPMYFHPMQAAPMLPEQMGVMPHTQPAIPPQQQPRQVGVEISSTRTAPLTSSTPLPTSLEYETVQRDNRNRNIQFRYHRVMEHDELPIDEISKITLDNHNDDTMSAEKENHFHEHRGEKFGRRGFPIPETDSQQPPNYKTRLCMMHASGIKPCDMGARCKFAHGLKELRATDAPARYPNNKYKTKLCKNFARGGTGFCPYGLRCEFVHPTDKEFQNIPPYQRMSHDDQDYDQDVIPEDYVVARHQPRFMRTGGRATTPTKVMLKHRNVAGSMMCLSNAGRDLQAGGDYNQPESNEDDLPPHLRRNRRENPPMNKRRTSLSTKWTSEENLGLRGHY
# [15] = P. falciparum Dd2 growth inhibitors, dose response, SYBR Green, cherry-picked samples (AID 1159567); format: functional, cell-based
smiles,measurement,setting,value
CCOc1ccccc1NC(=O)CCS(=O)(=O)c1cccs1,EC50,[1],> 195 µM (not active)
Cn1c(SCC(=O)NNC(=O)Nc2ccc(Cl)cc2)nnc1-c1ccccc1,EC50,[2],> 260 µM (inactive)
COC(=O)c1c(NC(NC(C)=O)C(Cl)(Cl)Cl)sc2c1CCCC2 (stereo unspecified),IC50,[3],> 50 µM (not active)
COC(=O)c1sccc1NC(=O)Nc1cccc(F)c1,EC50,[4],4.6 µM (active)
same,EC50,[2],237 µM (active)
same,EC50,[5],0.93 µM (active)
CCCCOc1ccc(S(=O)(=O)Nc2cccnc2)cc1,AC50,Cytochrome P450 2D6,25.1 µM (inconclusive)
same,AC50,[6],7.89 µM (active)
same,AC50,Cytochrome P450 2C19,0.355 µM (inconclusive)
CC1Cc2ccccc2N1C(=O)CSc1ncccc1C(=O)O (stereo unspecified),EC50,[1],> 195 µM (not active)
CCN=C(S)NS(=O)(=O)c1ccc(C)cc1,IC50,[7],> 66 µM (inactive)
same,IC50,[8],> 66 µM (inactive)
CCN(CC)CCCN1C(=O)CSC1c1ccc([N+](=O)[O-])cc1 (stereo unspecified),IC50,[7],> 66 µM (inactive)
same,IC50,[8],> 66 µM (inactive)
Cc1ccc(CN(C)C(=O)C2CCC(=O)N(CCc3ccccc3)C2)o1 (stereo unspecified),EC50,[2],> 260 µM (inactive)
Cc1ccc(CCC(=O)Nc2ccc(C)c(C)c2)o1,IC50,cells,49.8 µM (active)
COc1ccc(NC(=O)NNC(=O)c2cc3occc3n2C)c(OC)c1,EC50,[2],> 260 µM (inactive)
COc1ccc(COc2cccc(C=O)c2)cc1,IC50,cells,30.9 µM (active)
CCN1C(NCCc2cccs2)=N[C@@H](c2cccs2)C(C(=O)OC)=C1C,EC50,[1],> 195 µM (not active)
Cc1ccnc(SC2CC(=O)N(c3ccc([N+](=O)[O-])cc3)C2=O)n1 (stereo unspecified),IC50,[7],> 66 µM (inactive)
same,IC50,[8],> 66 µM (inactive)
COc1cc(NC(=O)c2cc3ccccc3cc2OC)ccc1NC(=O)c1cccs1,IC50,H9c2,> 79 µM (inactive)
same,EC50,[1],14.1 µM (active)
CCC(c1nnnn1Cc1ccco1)N(Cc1cc2cc(OC)ccc2nc1O)C1CCCCC1 (stereo unspecified),EC50,[2],10.7 µM (active)
same,AC50,[9],> 380 µM (inactive)
same,EC50,Protein RecA,40.2 µM (inconclusive)
O=C(c1ccc(COc2ccc(Cl)cc2)cc1)N1CCCCC1,IC50,[3],10.4 µM (not active)
CCOc1ccc(CN(C)CC(O)COC(c2ccc(OC)cc2)c2ccc(OC)cc2)cc1 (stereo unspecified),EC50,[2],> 260 µM (inactive)
same,CC50,[10],26.6 µM (active)
COc1ccc(Cn2nnnc2C(c2ccccc2Cl)N2CCC(C(N)=O)CC2)cc1 (stereo unspecified),EC50,[1],> 195 µM (not active)
Cc1ccc(/C=C/C(=O)N2CC(C)CC(C)C2)o1 (stereo unspecified),EC50,[2],24.5 µM (active)
same,CC50,[10],> 40 µM (active)
same,AC50,[11],22.8 µM (active)
CC1=C(C(=O)Nc2ccccc2C)C(c2cccs2)NC(S)=N1 (stereo unspecified),EC50,[1],> 195 µM (not active)
Cc1ccccc1-n1c(=O)cc(N2CCc3ccccc32)[nH]c1=O,EC50,[1],> 195 µM (not active)
Cc1ccc2cc(CN(CC3CCCO3)C(=O)NC3CCCCC3)c(O)nc2c1C (stereo unspecified),AC50,[12],4.49 µM (active)
same,AC50,[13],9.37 µM (active)
CCOC(=O)Cc1nc2cc(Cl)ccc2o1,IC50,cells,18.6 µM (active)
C=CCn1c(=O)/c(=C/c2ccc(C)o2)s/c1=C(/C#N)C(=O)c1ccccc1,EC50,[14],> 300 µM (inconclusive)
COc1ccccc1/C=N/NC(=O)c1ccc(Br)cc1,IC50,[3],45.9 µM (not active)
CCCC/N=C(/C)c1c(O)oc2ccccc2c1=O,IC50,[3],19.7 µM (not active)
N#Cc1ccc(-c2ccc([C@@H]3[C@@H]4CN(Cc5cocn5)C[C@H]3N4)cc2)cc1,AC50,[15],3.73 µM (active)
COc1ccc2c3c(n(C)c2c1)[C@H](CO)N(C(=O)Nc1ccc(F)cc1)CC31CN(Cc2cccnc2)C1,AC50,[15],3.4 µM (active)
COc1ccc2c3c([nH]c2c1)[C@H](CO)N(Cc1nccs1)CC31CN(Cc2cccnc2)C1,AC50,[15],10.7 µM (active)
Cc1ccccc1S(=O)(=O)N1C[C@@H]2N[C@H](C1)[C@@H]2c1ccc(-c2ccc(C#N)cc2)cc1,AC50,[15],3.32 µM (active)
COc1ccc2c3c(n(C)c2c1)[C@H](CO)N(C(=O)c1cccc(F)c1)CC31CN(C(=O)c2cccc(F)c2)C1,AC50,[15],9.32 µM (active)
